Experimental data: patent publication US9492382B2, “Hyperbranched polyester having a hydrophobic core for solubilizing active ingredients of low solubility” (BASF SE, priority 2009, dated 2016)

Test: physchem
Conditions: pH 7, aqueous buffer, thermodynamic from solid
Description: 2 g of polymer were weighed out into a 50 ml glass beaker. Then 0.2 g of each active ingredient was weighed out into the batch to give a supersaturated solution. […] The mixture was then stirred at room temperature for 72 hours, using a magnetic stirrer. After a rest time of one hour, excess (i.e., unsolubilized) active ingredient was removed by filtration. The resulting clear or opaque solution was then analyzed for its active ingredient content by means of UV spectroscopy or HPLC.
The results are compiled in tables 2 and 3.

- solubility at 72 h: < 100 µg/mL
Structure (SMILES): Clc1ccccc1C(c1ccccc1)(c1ccccc1)n1ccnc1 [Clotrimazole]
